Assay results as given in patent US20020026053A1, “Novel 3-(substituted) -2- indolinones compounds and use thereof as inhibitors of protein kinase activity” (priority 1997, published 2002).
“And” between values parts separate entries of the source, which are not always exact repeats. Equal values may be shown once.

Target: T1, Met receptor (EGFR/Met chimeric cells, EMR) (Homo sapiens, UniProt P08581)
T1 construct: expressed in transfected cells; the other entry of the earlier key: EGFR (P00533, Epidermal growth factor receptor)
Assay: Met Autophosphorylation Assay
Type: biochemical
Procedure: Met Autophosphorylation Assay
This assay determines Met tyrosine kinase activity by analyzing Met protein tyrosine kinase levels on the Met receptor.
a. HNTG (5× stock solution): Dissolve 23.83 g HEPES and 43.83 g NaCl in about 350 ml dH2O. Adjust pH to 7.2 with HCl or NaOH, add 500 ml glycerol and 10 ml Triton X-100, mix, add dH2O to 1 L total volume. To make 1 L of 1× working solution add 200 ml 5× stock solution to 800 ml dH2O, check and adjust pH as necessary, store at 4° C.
b. PBS (Dulbecco's Phosphate-Buffered Saline), Gibco Cat. # 450-1300EB (1× solution).
c. Blocking Buffer: in 500 ml dH2O place 100 g BSA, 12.1 g Tris-pH7.5, 58.44 g NaCl and 10 ml Tween-20, dilute to 1 L total volume.
d. Kinase Buffer: To 500 ml dH2O add 12.1 g TRIS (pH 7.2), 58.4 g NaCl, 40.7 g MgCl2 and 1.9 g EGTA; bring to 1 L total volume with dH2O.
e. PMSF (Phenylmethylsulfonyl fluoride), Sigma Cat. # P-7626, to 435.5 mg, add 100% ethanol to 25 ml total volume, vortex.
f. ATP (Bacterial Source), Sigma Cat. # A-7699, store powder at −20° C.; to make up solution for use, dissolve 3.31 mg in 1 ml dH2O.
g. RC-20H HRPO Conjugated Anti-Phosphotyrosine, Transduction Laboratories Cat. # E120H.
h. Pierce 1-Step Turbo™ B-ELISA (3,3′,5,5′-tetramethylbenzidine, Pierce Cat. # 34022.
i. H2SO4, add 1 ml conc.(18 N) to 35 ml dH2O.
j. TRIS HCL, Fischer Cat. # BP152-5; to 121.14 g of material, add 600 ml MilliQ H2O, adjust pH to 7.5 (or 7.2) with HCl, bring volume to 1 L with MilliQ H2O.
k. NaCl, Fischer Cat. # S271-10, make up 5M solution.
m. Na3VO4, Fischer Cat. # S454-50, to 1.8 g material add 80 ml MilliQ H2O, adjust pH to 10.0 with HCl or NaOH, boil in microwave, cool, check pH, repeat procedure until pH stable at 10.0, add MilliQ H2O to 100 ml total volume, make 1 ml aliquots and store at −80° C.
n. MgCl2, Fischer Cat. # M33-500, make up 1M solution.
o. HEPES, Fischer Cat. # BP310-500, to 200 ml MilliQ H2O, add 59.6 g material, adjust pH to 7.5, bring volume to 250 ml total, sterile filter.
p. Albumin, Bovine (BSA), Sigma Cat. # A-4503, to 30 grams material add sterile distilled water to make total volume of 300 ml, store at 4° C.
q. TBST Buffer: to approx. 900 ml dH2O in a 1 L graduated cylinder add 6.057 g TRIS and 8.766 g NaCl, when dissolved, adjust pH to 7.2 with HCl, add 1.0 ml Triton X-100 and bring to 1 L total volume with dH2O.
r. Goat Affinity purified antibody Rabbit IgG (whole molecule), Cappel Cat. # 55641.
s. Anti h-Met (C-28) rabbit polyclonal IgG antibody, Santa Cruz Chemical Cat. # SC-161.
t. Transiently Transfected EGFR/Met chimeric cells (EMR) (Komada, et al., Oncogene, 8:2381-2390 (1993).
u. Sodium Carbonate Buffer, ([…], Fischer Cat. # S495) to 10.6 g material add 800 ml MilliQ H2O, when dissolved adjust pH to 9.6 with NaOH, bring up to 1 L total volume with MilliQ H2O, filter, store at 4° C.
All of the following steps are conducted at room temperature unless it is specifically indicated otherwise. All ELISA plate washing is by rinsing 4× with TBST.
This procedure can be performed the night before or immediately prior to the start of receptor capture.
1. Quick thaw lysates in a 37° C. waterbath with a swirling motion until the last crystals disappear.
2. Lyse cell pellet with 1× HNTG containing 1 mM PMSF. Use 3 ml of HNTG per 15 cm dish of cells. Add ½ the calculated HNTG volume, vortex the tube for 1 min., add the remaining amount of HNTG, vortex for another min.
3. Balance tubes, centrifuge at 10,000× g for 10 min at 4° C.
4. Pool supernatants, remove an aliquot for protein determination.
5. Quick freeze pooled sample in dry ice/ethanol bath. This step is performed regardless of whether lysate will be stored overnight or used immediately following protein determination.
6. Perform protein determination using standard bicinchoninic acid (BCA) method (BCA Assay Reagent Kit from Pierce Chemical Cat. # 23225).
1. Coat Corning 96 well ELISA plates with 5 μg per well Goat anti-Rabbit antibody in Carbonate Buffer for a total well volume of 50 μl. Store overnight at 4° C. […]

T1 sequence (P08581 with tags, fused parts or gaps): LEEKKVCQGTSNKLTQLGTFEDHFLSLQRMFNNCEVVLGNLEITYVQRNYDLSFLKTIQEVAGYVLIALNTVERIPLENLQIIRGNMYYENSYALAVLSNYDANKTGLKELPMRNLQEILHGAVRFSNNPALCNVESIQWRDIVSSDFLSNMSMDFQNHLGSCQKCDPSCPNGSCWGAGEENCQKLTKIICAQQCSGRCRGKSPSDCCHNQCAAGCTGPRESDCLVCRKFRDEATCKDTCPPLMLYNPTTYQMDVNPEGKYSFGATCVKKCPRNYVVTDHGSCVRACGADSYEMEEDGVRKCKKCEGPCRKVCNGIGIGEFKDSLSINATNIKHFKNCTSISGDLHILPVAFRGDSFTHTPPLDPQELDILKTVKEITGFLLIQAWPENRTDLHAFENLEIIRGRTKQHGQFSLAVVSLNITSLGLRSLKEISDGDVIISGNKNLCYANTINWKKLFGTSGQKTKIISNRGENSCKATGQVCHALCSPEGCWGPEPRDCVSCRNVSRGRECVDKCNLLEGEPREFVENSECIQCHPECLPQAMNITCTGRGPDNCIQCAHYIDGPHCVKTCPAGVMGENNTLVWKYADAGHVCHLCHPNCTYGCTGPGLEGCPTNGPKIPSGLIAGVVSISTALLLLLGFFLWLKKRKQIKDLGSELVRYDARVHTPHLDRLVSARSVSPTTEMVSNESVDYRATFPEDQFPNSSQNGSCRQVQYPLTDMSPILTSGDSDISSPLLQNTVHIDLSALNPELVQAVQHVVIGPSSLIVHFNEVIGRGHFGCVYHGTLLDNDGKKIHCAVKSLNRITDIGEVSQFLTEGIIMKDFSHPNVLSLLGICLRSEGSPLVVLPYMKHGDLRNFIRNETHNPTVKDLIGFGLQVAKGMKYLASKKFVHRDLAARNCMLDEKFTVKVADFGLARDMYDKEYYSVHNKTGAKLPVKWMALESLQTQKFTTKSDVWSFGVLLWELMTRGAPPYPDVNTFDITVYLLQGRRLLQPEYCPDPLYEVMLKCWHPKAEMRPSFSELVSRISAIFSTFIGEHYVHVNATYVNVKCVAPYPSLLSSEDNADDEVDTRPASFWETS

| Structure (SMILES) | Met Kinase % Inhibition (P.130) |
| --- | --- |
| Cc1c(Br)cc(Br)c2c1C(=Cc1ccc(F)cc1)C(=O)N2 [10717/H05] | 16.3% |
| Cc1c(Br)cc(Br)c2c1C(=Cc1c[nH]c3ccccc13)C(=O)N2 [10717/H06] | 30.5% |
| Cc1ccc(C=C2C(=O)Nc3c(Br)cc(Br)c(C)c32)s1 [10717/H07] | 9.1% |
| Cc1c(Br)cc(Br)c2c1C(=Cc1ccc(Br)cc1)C(=O)N2 [10717/H08] | 23.0% |
| Cc1c(Br)cc(Br)c2c1C(=Cc1ccc[nH]1)C(=O)N2 [10717/H09] | 8.8% |
| COc1cccc(O)c1C=C1C(=O)Nc2c(Br)cc(Br)c(C)c21 [10717/H10] | 52.3% |
| Cc1[nH]c(C=C2C(=O)Nc3c(Br)cc(Br)c(C)c32)c(Br)c1Br [10717/H11] | 58.2% |
| Cc1c(Br)cc(Br)c2c1C(=Cc1ccc(Br)o1)C(=O)N2 [10726/H05] | 80.2% |
| Cc1cn(C)cc1C=C1C(=O)Nc2c(Br)cc(Br)c(C)c21 [10726/H06] | 35.1% |
| Cc1c(Br)cc(Br)c2c1C(=Cc1cc(O)c3c(c1O)CCCC3)C(=O)N2 [10726/H07] | 80.9% |
| Cc1c(Br)cc(Br)c2c1C(=C1C(=O)Nc3ccc(F)cc31)C(=O)N2 [10726/H08] | 71.2% |
| Cc1c(Br)cc(Br)c2c1C(=C1C(=O)Nc3ccccc31)C(=O)N2 [10726/H09] | 68.1% |
| CCc1ccc(C=C2C(=O)Nc3c(Br)cc(Br)c(C)c32)s1 [10726/H10] | 45.7% |
| COc1ccc(C=C2C(=O)Nc3c(Br)cc(Br)c(C)c32)cc1 [10726/H11] | 40.8% |
| CCN(CC)c1ccc(C=C2C(=O)Nc3c(Br)cc(Br)c(C)c32)cc1 [10727/H02] | 55.5% |
| CCc1cc(CC)c(C=C2C(=O)Nc3c(Br)cc(Br)c(C)c32)[nH]1 [10727/H03] | 49.2% |
| Cc1c(Br)cc(Br)c2c1C(=Cc1cc(Cl)cc(Br)c1O)C(=O)N2 [10727/H04] | 81.7% |
| Cc1c(Br)cc(Br)c2c1C(=Cc1ccccc1Sc1ccc(Cl)cc1)C(=O)N2 [10727/H05] | 20.6% |
| Cc1c(Br)cc(Br)c2c1C(=Cc1cc3c(cc1Cl)OCO3)C(=O)N2 [10727/H06] | 5.2% |
| Cc1c(Br)cc(Br)c2c1C(=Cc1coc3ccccc3c1=O)C(=O)N2 [10727/H07] | 26.8% |
| Cc1c(Br)cc(Br)c2c1C(=Cc1cccc(C#N)c1)C(=O)N2 [10727/H08] | 12.3% |
| Cc1c(Br)cc(Br)c2c1C(=Cc1ccc(C#N)cc1)C(=O)N2 [10727/H09] | 31.1% |
| Cc1c(Br)cc(Br)c2c1C(=Cc1cc(O)ccc1O)C(=O)N2 [10727/H10] | 89.7% |
| COc1cccc(C=C2C(=O)Nc3c(Br)cc(Br)c(C)c32)c1OC [10727/H11] | 17.9% |
| COc1ccc(OC)c(C=C2C(=O)Nc3c(Br)cc(Br)c(C)c32)c1 [10728/H02] | 25.8% |
| COc1cccc(OC)c1C=C1C(=O)Nc2c(Br)cc(Br)c(C)c21 [10728/H03] | 15.6% |
| COc1cc(C=C2C(=O)Nc3c(Br)cc(Br)c(C)c32)cc(OC)c1 [10728/H04] | 32.9% |

| Structure (SMILES) | Met Kinase % Inhibition (P.130) |
| --- | --- |
| COc1cc(N(C)C)ccc1C=C1C(=O)Nc2c(Br)cc(Br)c(C)c21 [10728/H05] | 41.2% and 33.9% |
| Cc1c(Br)cc(Br)c2c1C(=Cc1ccc3c(c1)Cc1ccccc1-3)C(=O)N2 [10728/H06] | 28.5% |
| Cc1c(Br)cc(Br)c2c1C(=Cc1cccc(C(F)(F)F)c1F)C(=O)N2 [10728/H07] | 45.8% |
| Cc1c(Br)cc(Br)c2c1C(=Cc1c(F)cccc1C(F)(F)F)C(=O)N2 [10728/H09] | 30.5% |
| Cc1c(Br)cc(Br)c2c1C(=Cc1ccccc1OCC(=O)O)C(=O)N2 [10728/H10] | 65.2% |
| COc1cc(C=C2C(=O)Nc3c(Br)cc(Br)c(C)c32)cc2c1OCO2 [10728/H11] | 8.0% |
| COc1ccc2ccccc2c1C=C1C(=O)Nc2c(Br)cc(Br)c(C)c21 [10729/H02] | 25.5% |
| COc1ccc(C=C2C(=O)Nc3c(Br)cc(Br)c(C)c32)c2ccccc12 [10729/H03] | 2.8% |
| CSc1ccc(C=C2C(=O)Nc3c(Br)cc(Br)c(C)c32)cc1 [10729/H04] | 25.1% |
| Cc1ccsc1C=C1C(=O)Nc2c(Br)cc(Br)c(C)c21 [10729/H05] | 27.9% |
| Cc1c(Br)cc(Br)c2c1C(=Cc1cccc(Oc3ccccc3)c1)C(=O)N2 [10729/H06] | 28.4% |
| Cc1c(Br)cc(Br)c2c1C(=Cc1ccccn1)C(=O)N2 [10729/H07] | 81.0% |
| Cc1c(Br)cc(Br)c2c1C(=Cc1cccnc1)C(=O)N2 [10729/H08] | 44.0% |
| Cc1c(Br)cc(Br)c2c1C(=Cc1ccncc1)C(=O)N2 [10729/H09] | 45.1% |
| Cc1c(Br)cc(Br)c2c1C(=Cc1ccc(N3CCCC3)cc1)C(=O)N2 [10729/H10] | 12.8% |
| Cc1c(Br)cc(Br)c2c1C(=CC1C=CCCC1)C(=O)N2 (centres unmarked) [10729/H11] | 36.1% |
| COc1ccc(C=C2C(=O)Nc3c(Br)cc(Br)c(C)c32)c(OC)c1OC [10730/H02] | 32.0% |
| COc1cc(OC)c(OC)cc1C=C1C(=O)Nc2c(Br)cc(Br)c(C)c21 [10730/H03] | 28.3% |
| COc1cc(C=C2C(=O)Nc3c(Br)cc(Br)c(C)c32)cc(OC)c1OC [10730/H04] | 37.1% |
| CC(=O)n1cc(C=C2C(=O)Nc3c(Br)cc(Br)c(C)c32)c2ccccc21 [10730/H05] | 30.7% |
| Cc1c(Br)cc(Br)c2c1C(=Cc1ccc(-c3ccccc3Cl)o1)C(=O)N2 [10730/H07] | 38.7% |
| Cc1c(Br)cc(Br)c2c1C(=Cc1cc3ccccc3nc1Cl)C(=O)N2 [10730/H08] | 57.8% |
| COC1CC(C=C2C(=O)Nc3c(Br)cc(Br)c(C)c32)C(OC)O1 (centres unmarked) [10730/H10] | 24.9% |
| Cc1cc(C=C2C(=O)Nc3c(Br)cc(Br)c(C)c32)oc1C [10730/H11] | 32.6% |
| CCn1c2ccccc2c2cc(C=C3C(=O)Nc4c(Br)cc(Br)c(C)c43)ccc21 [10731/H02] | 16.4% |
| Cc1cc2occ(C=C3C(=O)Nc4c(Br)cc(Br)c(C)c43)c(=O)c2cc1C [10731/H03] | 23.3% |
